Reference: PMC8378823, “X-ray free-electron laser studies reveal correlated motion during isopenicillin N synthase catalysis” (Science Advances, 2021)

Molecular target: T1, isopenicillin N synthase (IPNS) (Aspergillus nidulans, UniProt P05326)
T1 construct: gene ipnA; recombinant wild type (pJB703) from E. coli NM554; S55C form from pCOLD I, N-terminal His6 tag cut with 3C protease, 37,768 Da
T1 sequence (P05326 1-331): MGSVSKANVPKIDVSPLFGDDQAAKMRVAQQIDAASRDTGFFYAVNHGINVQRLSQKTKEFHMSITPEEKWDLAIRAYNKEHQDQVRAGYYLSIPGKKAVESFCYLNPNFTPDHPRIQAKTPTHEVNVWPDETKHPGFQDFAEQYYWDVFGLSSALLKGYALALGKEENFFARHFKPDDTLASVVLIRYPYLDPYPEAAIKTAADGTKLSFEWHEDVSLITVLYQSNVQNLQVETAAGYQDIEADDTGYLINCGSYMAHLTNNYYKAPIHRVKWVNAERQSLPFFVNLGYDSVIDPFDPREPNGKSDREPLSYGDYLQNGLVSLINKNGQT
Assay: SFX and cryo synchrotron crystal structure
Format: binding
Details: Fe complex; formed in crystallo from ACV by about 30 min O2 exposure; SFX 1.60 Å at room temperature

CC1(C)S[C@@H]2[C@H](NC(=O)CCC[C@H](N)C(=O)O)C(=O)N2[C@H]1C(=O)O [isopenicillin N]
SFX and cryo synchrotron crystal structure: Composite SFX 2mFo-DFc omit map for IPNS:Fe:IPN obtained by ~30-min O2 exposure
